Laboratory results from US20240252477A1, “NLRP3 INFLAMMASOME-INHIBITING COMPOUNDS AND THE USE THEREOF” (UNIVERSITA' DEGLI STUDI DI TORINO (60%), priority 2021, published 2024).

What was measured:
NLRP3 inflammasome = target: T1, NLRP3 inflammasome (Homo sapiens, UniProt Q96P20); experiment: NLRP3-dependent pyroptosis (LDH release) in PMA-differentiated THP-1 cells stimulated with LPS/ATP; format: cell-based; details: compounds at 10 μM for 1 hour; differentiated THP-1, LPS 10 μg/mL 4 hours, ATP 1.5 hours; read-out: Pyroptosis inhibition (% ± SEM)
T1 construct: The THP-1 cells were differentiated into macrophages by treating them with PMA 50 nM; endogenous in cells; host or cells: THP-1 (human monocytic leukaemia line), PMA-differentiated, primed with LPS, triggered with ATP
Protocol: THP-1 cells, a monocytic human cell line derived from the peripheral blood of a patient suffering from acute monocytic leukaemia (www.atcc.org), were cultured in RPMI 1640 medium (Aurogene, Rome, Italy), with the addition of foetal bovine serum (10%, Aurogene), L-glutamine (2 mM, Aurogene), penicillin (100 IU/ml, Aurogene) and streptomycin ([…], Aurogene). The medium was changed every 2-3 days, and the cells were maintained in an incubator at 37° C., with 5% CO2, and with suitable humidity.
The cells were seeded in 48-well plates (90.000 cells/well), and differentiated with phorbol 12-myristate 13-acetate (PMA—50 nM, 24 hours; Sigma-Aldrich). On the next day, the differentiated THP-1s were washed twice with the balanced saline solution phosphate-buffered saline (PBS), and stimulated with lipopolysaccharide (LPS) (10 μg/mL, 4 hours; Sigma-Aldrich), prepared in serum-free medium. After 4 hours the cells were incubated with the compounds at the concentration of 10 μM for 1 hour, operating in triplicate; INF176 and INF177 were tested at three different concentrations: […]. Finally, the cells were stimulated with ATP 5 mm for 1.5 hours. The supernatants were then harvested for the subsequent analyses.
LDH release into the supernatant obtained as described above was quantified using the CytoTox 96 nonradioactive cytotoxicity assay (Promega Corporation, Madison, […], USA), a colorimetric assay wherein LDH activity is measured with an NADH-dependent enzymatic reaction:
Briefly, an equal volume of CytoTox Reagent was added to the supernatant and, after 30 minutes' incubation, the reaction was stopped by adding the stop solution. The formazan concentration was determined by measuring absorbance, using a microplate reader (Victor X4—EnSight, PerkinElmer, Waltham, MA, USA), at λ=490 nm. Cell death was expressed according to the manufacturer's instructions.
The compound INF176 was tested to measure its ability to inhibit NLRP3-dependent cell pyroptosis in human macrophages, using the experimental protocol previously published [Cocco et al. 2017].
The THP-1 cells were differentiated into macrophages by treating them with PMA 50 nM (24 hours) and then with LPS (10 μg/mL) for 4 hours. The cells were treated with the compound (10 μM) for 1 hour. Pyroptosis was induced by treatment with ATP 5 mm. After 90 minutes, cell death was evaluated by measuring the LDH level in the cell supernatant using the CytoTox 96 Non-Radioactive Cytotoxicity Assay (Promega Corporation, Madison, […], USA).

Cytotoxicity (MTT assay) = format: cell-based, human; details: human; THP-1 cells, 72 hours' incubation
Protocol: The THP-1 cells were seeded in a 96-well plate (15.000 cells/well) and incubated with the test compounds at four different concentrations (0.1, 1, 10 and 100 μM), operating in triplicate. The cells were placed in an incubator at 37° C., with 5% CO2, and cell viability was measured after 72 hours' incubation, using the MTT assay. This is a colorimetric assay, based on conversion of water-soluble 3-(4,5-dimethylthiazol-2-yl)-2,5-diphenyltetrazolium bromide (MTT; Sigma-Aldrich) to a violet-coloured insoluble formazan, by the mitochondrial dehydrogenase present in the live cells. The formazan is solubilised in acidified isopropanol, and the concentration is determined by measuring absorbance with a microplate reader (Victor X4—Ensight, PerkinElmer) at λ=570 nm. Viability was expressed as a percentage of the viability of the control cells, which were either untreated or treated with the carrier. The IC50 was calculated with the Graph Pad Prism software.

T1 sequence (Q96P20 whole entry): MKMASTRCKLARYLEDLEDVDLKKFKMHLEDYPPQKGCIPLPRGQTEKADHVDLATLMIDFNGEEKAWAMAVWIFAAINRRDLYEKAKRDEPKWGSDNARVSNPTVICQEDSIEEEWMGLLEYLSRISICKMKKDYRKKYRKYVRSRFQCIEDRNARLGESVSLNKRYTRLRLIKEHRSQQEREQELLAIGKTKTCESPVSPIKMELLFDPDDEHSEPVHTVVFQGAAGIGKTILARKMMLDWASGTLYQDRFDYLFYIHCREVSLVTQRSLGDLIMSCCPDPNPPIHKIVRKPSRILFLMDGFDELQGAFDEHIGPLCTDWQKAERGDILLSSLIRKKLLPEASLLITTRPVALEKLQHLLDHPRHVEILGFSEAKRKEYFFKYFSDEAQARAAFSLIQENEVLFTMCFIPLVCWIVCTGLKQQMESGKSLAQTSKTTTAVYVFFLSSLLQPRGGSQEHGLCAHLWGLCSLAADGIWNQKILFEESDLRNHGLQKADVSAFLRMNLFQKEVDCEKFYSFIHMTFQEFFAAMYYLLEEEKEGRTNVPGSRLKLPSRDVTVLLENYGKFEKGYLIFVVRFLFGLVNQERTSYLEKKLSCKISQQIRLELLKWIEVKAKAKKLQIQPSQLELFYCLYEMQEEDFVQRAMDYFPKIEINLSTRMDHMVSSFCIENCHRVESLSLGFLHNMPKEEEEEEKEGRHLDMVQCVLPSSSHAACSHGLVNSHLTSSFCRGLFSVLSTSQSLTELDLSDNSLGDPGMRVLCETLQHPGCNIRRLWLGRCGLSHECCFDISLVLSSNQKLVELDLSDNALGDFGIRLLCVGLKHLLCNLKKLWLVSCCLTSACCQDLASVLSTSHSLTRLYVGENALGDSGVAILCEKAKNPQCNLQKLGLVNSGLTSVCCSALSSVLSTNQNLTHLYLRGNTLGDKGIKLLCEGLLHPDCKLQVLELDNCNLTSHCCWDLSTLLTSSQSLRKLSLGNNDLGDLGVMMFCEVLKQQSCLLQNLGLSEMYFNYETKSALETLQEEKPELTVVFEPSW

inhibition at 10 µM (NLRP3 inflammasome) [%]	SMILES	IC50 at 72 h (Cytotoxicity (MTT assay)) [µM]
< 10	CCOC(=O)C1CCN(C(=O)/C(=C/c2ccccc2Cl)CSC2CCCCC2)CC1 [INF188, ethyl (Z)-1-(3-(2-chlorophenyl)-2-((cyclohexylthio)methyl)acryloyl)piperidine-4-carboxylate]	58.6 ± 5.3
< 10	CCOC(=O)C1CCN(C(=O)C(CSc2ccccc2)Cc2ccccc2Cl)CC1 (centres unmarked) [INF186, ethyl 1-(2-(2-chlorobenzyl)-3-(phenylthio)propanoyl)piperidine-4-carboxylate]	94.6 ± 4
41.6 ± 3.9	CCOC(=O)/C(=C/c1ccccc1Cl)CSC1CCCCC1 [INF56, (Z)-ethyl 3-(2-chlorophenyl)-2-((cyclohexylthio)methyl)acrylate]	> 100
50.6 ± 5.8	CCOC(=O)C(Cc1ccccc1Cl)CS(=O)(=O)c1ccccc1 (centres unmarked) [INF49, ethyl 2-(2-chlorobenzyl)-3-(phenylsulphonyl)-propanoate]	> 100
23.5 ± 4.2	CCOC(=O)[C@@H](CSc1ccccc1)[C@H](O)c1ccccc1Cl (mixture of isomers) [INF38s, Ethyl(2S,3S)-3-(2-chlorophenyl)-3-hydroxy-2-(phenylsulphanylmethyl)-propanoate and ethyl(2R,3R)-3-(2-chlorophenyl)-3-hydroxy-2-(phenylsulphanylmethyl)propanoate]	> 100
< 10	O=C(O)C1CCN(C(=O)/C(=C/c2ccccc2Cl)CSc2ccccc2)CC1 [INF187, (Z)-1-(3-(2-chlorophenyl)-2-((phenylthio)methyl)acryloyl)piperidine-4-carboxylic acid]	> 100
41.1 ± 2.5	CCOC(=O)/C(=C/c1ccccc1Cl)C[S+]([O-])c1ccccc1 (centres unmarked) [INF50, (Z)-ethyl 3-(2-chlorophenyl)-2-((phenylsulphinyl)methyl)acrylate]	9.7 ± 0.2
32.2 ± 5.7	CCOC(=O)[C@@H](CN1CCCC1)[C@H](O)c1ccccc1Cl (racemic) [INF37 syn]	
26.9 ± 4.9	CCOC(=O)[C@H](CSc1ccccc1)[C@H](O)c1ccccc1Cl (mixture of isomers) [INF38a, Ethyl(2S,3S)-3-(2-chlorophenyl)-3-hydroxy-2-(phenylsulphanylmethyl)-propanoate and ethyl(2S,3R)-3-(2-chlorophenyl)-3-hydroxy-2-(phenylsulphanylmethyl)propanoate]	> 100
21.1 ± 2.9	CCOC(=O)[C@H](CN1CCCC1)[C@H](O)c1ccccc1Cl (stereo in doubt) [INF37 anti]	
45.8 ± 6.7	CCOC(=O)[C@@H](CS(=O)(=O)c1ccccc1)[C@H](O)c1ccccc1Cl (stereo in doubt) [INF45, ethyl 3-(2-chlorophenyl)-3-hydroxy-2-((phenylsulphonyl)methyl)propanoate]	> 100
21.3 ± 4.6	CCOC(=O)/C(=C/c1ccccc1Cl)CSCC(NC(C)=O)C(=O)O (centres unmarked) [INF85]	> 100
	CCOC(=O)[C@H]1CCCN(C(=O)[C@@H](CSc2ccccc2)Cc2ccccc2Cl)C1 (racemic) [INF184+INF185, ethyl 1-(2-(2-chlorobenzyl)-3-(phenylthio)propanoyl)piperidine-3-carboxylate]	75.4 ± 2.6
< 10	CCOC(=O)[C@@H]1CCCN(C(=O)[C@@H](CSc2ccccc2)Cc2ccccc2Cl)C1 (racemic) [INF185, ethyl 1-(2-(2-chlorobenzyl)-3-(phenylthio)propanoyl)piperidine-3-carboxylate]	
14.4 ± 4.3	CCOC(=O)[C@H]1CCCN(C(=O)/C(=C/c2ccccc2Cl)CSc2ccccc2)C1 [INF203, ethyl (S,Z)-1-(3-(2-chlorophenyl)-2-((phenylthio)methyl)acryloyl)piperidine-3-carboxylate]	
< 10	CCOC(=O)C(Cc1ccccc1Cl)CS(=O)(=O)C1CCCCC1 (centres unmarked) [INF111, ethyl 2-(2-chlorobenzyl)-3-(cyclohexylsulphonyl)propanoate]	98.1 ± 4.8
62.2 ± 9.78	CCOC(=O)C1CCCN(C(=O)C(CSC2CCCCC2)Cc2ccccc2Cl)C1 (centres unmarked) [INF192, ethyl 1-(2-(2-chlorobenzyl)-3-(cyclohexylthio)propanoyl)piperidine-3-carboxylate]	59.8 ± 0.7
34.5 ± 0.3	CCOC(=O)/C(=C/c1ccccc1Cl)COc1ccccc1 [INF57, (E)-ethyl 3-(2-chlorophenyl)-2-(phenoxymethyl)acrylate]	> 100
19 ± 4.1	CCCNC(=O)/C(=C/c1ccccc1Cl)CSc1ccccc1 [INF82, (Z)-3-(2-chlorophenyl)-2-((phenylthio)methyl)-N-propylacrylamide]	63.3 ± 1.3
< 10	CCOC(=O)C(CSC1CCCCC1)Cc1ccccc1Cl (centres unmarked) [INF110, ethyl 2-(2-chlorobenzyl)-3-(cyclohexylthio)propanoate]	66 ± 1.4
< 10	O=C(O)/C(=C/c1ccccc1Cl)CSC1CCCCC1 [INF86, (Z)-3-(2-chlorophenyl)-2-((cyclohexylthio)methyl)acrylic acid]	> 100
< 10	CCOC(=O)[C@@H](C[S+]([O-])c1ccccc1)[C@H](O)c1ccccc1Cl (mixture of isomers) [INF44, ethyl 3-(2-chlorophenyl)-3-hydroxy-2-((phenylsulphinyl)methyl)propanoate]	> 100
	CCOC(=O)C(CN1CCCC1)C(O)c1ccccc1Cl (stereo not drawn) [INF37 (syn), ethyl 3-(2-chlorophenyl)-3-hydroxy-2-(pyrrolidin-1-ylmethyl)propanoate]	> 100
69.1 ± 2.2	CCOC(=O)/C(=C/c1ccccc1Cl)CSc1ccccc1 [INF42, ethyl (Z)-3-(2-chlorophenyl)-2-((phenylthio)methyl)acrylate]	> 100
51 ± 5.6	CCOC(=O)C(CSc1ccccc1)Cc1ccccc1Cl (centres unmarked) [INF43, ethyl 2-(2-chlorobenzyl)-3-(phenylthio)propanoate]	> 100
< 10	CCOC(=O)C1CCCN(C(=O)/C(=C/c2ccccc2Cl)CSC2CCCCC2)C1 (centres unmarked) [INF194, ethyl (Z)-1-(3-(2-chlorophenyl)-2-((cyclohexylthio)methyl)acryloyl)piperidine-3-carboxylate]	78.3 ± 10.2
40.9 ± 1.2	CCOC(=O)[C@@H]1CCCN(C(=O)/C(=C/c2ccccc2Cl)CSc2ccccc2)C1 [INF202, ethyl (R,Z)-1-(3-(2-chlorophenyl)-2-((phenylthio)methyl)acryloyl)piperidine-3-carboxylic acid]	

SMILES	inhibition at 10 µM (NLRP3 inflammasome) [%]	IC50 at 72 h (Cytotoxicity (MTT assay)) [µM]
NS(=O)(=O)c1ccc(CCNC(=O)/C(=C/c2ccccc2Cl)CSc2ccccc2)cc1 [INF220, (Z)-3-(2-chlorophenyl)-2-((phenylthio)methyl)-N-(4-sulphamoylphenethyl)acrylamide]	73.9 ± 13.9	> 62.5
CCOC(=O)C(CSCC(NC(=O)OC(C)(C)C)C(=O)OC)Cc1ccccc1Cl (centres unmarked) [INF55, ethyl 3-((2-((tert-butoxycarbonyl)amino)-3-methoxy-3-oxopropyl)thio)-2-(2-chlorobenzyl)propanoate]	< 10	> 100
CCOC(=O)C1CCCN(C(=O)/C(=C/c2ccccc2[N+](=O)[O-])CSc2ccccc2)C1 (centres unmarked) [INF231, ethyl (Z)-1-(3-(2-nitrophenyl)-2-((phenylthio)methyl)acryloyl)piperidine-3-carboxylate]	32.6 ± 19.8	
CCOC(=O)C1CCCN(C(=O)/C(=C/c2cccc(Cl)c2)CSc2ccccc2)C1 (centres unmarked) [INF230, ethyl (Z)-1-(3-(3-chlorophenyl)-2-((phenylthio)methyl)acryloyl)piperidine-3-carboxylate]	39 ± 15.4	
